Reference: publication PMC6981581, “N-(2-Arylmethylthio-4-Chloro-5-Methylbenzenesulfonyl)amide Derivatives as Potential Antimicrobial Agents—Synthesis and Biological Studies” (International Journal of Molecular Sciences, 2019)
≈ marks a conversion by molar mass, not a printed value. Where “and” joins values, the source holds several entries; their conditions need not be identical. Identical values can stand only once. Like-named read-outs stand apart in the source and are kept apart here.

What was measured:
Assay type in all cases: cell-based
[1] = system: Enterococcus faecalis ATCC 11420; assay: Broth dilution MIC/MBC, reference strain; conditions: for MBC / MIC: Enterococcus faecalis, ATCC11420; for MBC/MIC: E. f. ATCC 11420
Protocol: (§1) The tests were carried out using a serial dilution method, allowing the determination of MIC (minimal concentration inhibiting bacterial growth), MBC (minimal bactericidal concentration), and MFC (minimal fungicidal concentration) values.
(§2) Antimicrobial activity was tested using the following reference strains: Staphylococcus aureus ATCC 6538 (MSSA), Staphylococcus aureus ATCC 43300 (MRSA), Staphylococcus epidermidis PCM 2118, Escherichia coli ATCC 11229, Pseudomonas aeruginosa ATCC 15442, Proteus vulgaris NCTC 4635, Enterococcus faecalis ATCC 11420, and Candida albicans ATCC 10231.
(§3) A broth dilution method was used to determine minimal inhibitory concentration (MIC) for tested compounds as recommended by Clinical Laboratory Standards Institute (CLSI) guidelines. Investigated compounds were diluted in Mueller Hinton Broth 2 (Sigma-Aldrich Co., St. Louis, MO, USA) in polypropylene 96-well plates and initial inoculum 5 × 10^5 cfu/mL were incubated at 37 °C for 18 h. MIC was taken as the lowest drug concentration at which an observable growth was inhibited. […] The loopful (10 µL) of the tested sample was transferred to Tryptic Soy Agar (TSA, Becton-Dickinson, Franklin Lakes, NJ, USA) and incubated at 37 °C for 48 h. […] Drug Solutions were made fresh on the day of the assay. All experiments were performed in triplicate.

[2] = system: Escherichia coli ATCC 11229; assay: Broth dilution MIC/MBC, reference strain; conditions: for MBC / MIC: Escherichia coli, ATCC11229; for MBC/MIC: E. c. ATCC 11229
Protocol: as §1, §2, §3

[3] = system: Proteus vulgaris NCTC 4635; assay: Broth dilution MIC/MBC, reference strain; conditions: for MBC / MIC: Proteus vulgaris, NCTC4635; for MBC/MIC: P. v. NCTC 4635
Protocol: as §1, §2, §3

[4] = system: Pseudomonas aeruginosa ATCC 15442; assay: Broth dilution MIC/MBC, reference strain; conditions: for MBC / MIC: Pseudomonas aeruginosa, ATCC15442; for MBC/MIC: P. a. ATCC 15442
Protocol: as §1, §2, §3

[5] = system: Staphylococcus aureus ATCC 43300 (MRSA); assay: Broth dilution MIC/MBC, reference strain; conditions: for MBC / MIC: Staphylococcus aureus; for MBC/MIC: S. a. ATCC 43300
Protocol: as §1, §2, §3

[6] = system: Staphylococcus aureus ATCC 6538 (MSSA); assay: Broth dilution MIC/MBC, reference strain; conditions: for MBC / MIC: Staphylococcus aureus; for MBC/MIC: S. a. ATCC 6538
Protocol: as §1, §2, §3

[7] = system: Staphylococcus epidermidis PCM 2118; assay: Broth dilution MIC/MBC, reference strain; conditions: for MBC/MIC: S. e. PCM 2118
Protocol: as §1, §2, §3

[8] = system: Candida albicans ATCC 10231; assay: Broth dilution MIC/MFC, reference fungal strain; conditions: for MFC / MIC: Candida albicans, ATCC10231; for MFC/MIC: C. a. ATCC 10231
Protocol: as §1, §2, §3

[9] = system: HaCaT cell line (human keratinocyte); assay: MTT cell viability assay; conditions: MTT assay, 72 h incubation, mean ± SD, read-out: IC50 HaCaT
HCT-116 (colon cancer) = assay: MTT cell viability assay; conditions: Homo sapiens, 72 h incubation, mean ± SD
Protocol: (§4) Analysis was performed using the MTT test and 72 h of incubation.
(§5) All chemicals were obtained from Sigma-Aldrich (St. Louis, MO, USA). The MCF-7 and HeLa cell lines were purchased from Cell Lines Services (Eppelheim, Germany), the HCT-116 cell line was purchased from ATCC (ATCC-No: CCL-247). Cells were cultured in Dulbecco’s modified Eagle’s medium (DMEM) supplemented with 10% fetal bovine serum, 2 mM glutamine, 100 units/mL penicillin, and 100 μg/mL streptomycin. Cultures were held in an incubator (Heraceus, HeraCell) in a humidified atmosphere with 5% CO2 at 37 °C.
(§6) Cell viability was evaluated using the MTT (3-(4,5-dimethylthiazol-2-yl)-2,5-diphenyltetrazolium bromide) assay. Stock solutions of the studied compounds were obtained in 100% DMSO. […] Cells at a density of 5 × 10^3 cells/well, seeded in 96-well plates, were treated for 72 h with the tested compounds in the concentration range 1–100 μM (1, 10, 25, 50 and 100 μM). After treatment, cells were incubated for 2 h with MTT (0.5 mg/mL) at 37 °C. Cells were lysed with DMSO and the absorbance of the formazan solution was measured at 550 nm with a plate reader (1420 multilabel counter, Victor, Jügesheim, Germany). Values are expressed as the mean ± SD of at least three independent experiments conducted in triplicate.

HeLa (cervical cancer) = assay: MTT cell viability assay; conditions: Homo sapiens, 72 h incubation, mean ± SD
Protocol: as §4, §5, §6

MCF-7 (breast cancer) = assay: MTT cell viability assay; conditions: Homo sapiens, MCF7, 72 h incubation, mean ± SD
Protocol: as §4, §5, §6

[10] = E. faecalis ATCC 11420, read-out: MBC
[11] = E. faecalis ATCC 11420, read-out: MIC
[12] = E. coli ATCC 11229, read-out: MBC
[13] = E. coli ATCC 11229, read-out: MIC
[14] = P. vulgaris NCTC 4635, read-out: MBC
[15] = P. vulgaris NCTC 4635, read-out: MIC
[16] = P. aeruginosa ATCC 15442, read-out: MBC
[17] = P. aeruginosa ATCC 15442, read-out: MIC
[18] = S. aureus ATCC 43300, read-out: MBC
[19] = S. aureus ATCC 43300, read-out: MIC
[20] = S. aureus ATCC 6538, read-out: MBC
[21] = S. aureus ATCC 6538, read-out: MIC
[22] = Staphylococcus epidermidis, PCM2118, S. epidermidis PCM 2118, read-out: MBC
[23] = Staphylococcus epidermidis, PCM2118, S. epidermidis PCM 2118, read-out: MIC
[24] = C. albicans ATCC 10231, read-out: MFC
[25] = C. albicans ATCC 10231, read-out: MIC

| Compound | MBC/MIC [1] | MBC [1, 10] [µg/mL] | MIC [1, 11] [µg/mL] | MBC/MIC [2] | MBC [2, 12] [µg/mL] | MIC [2, 13] [µg/mL] | MBC/MIC [3] | MBC [3, 14] [µg/mL] | MIC [3, 15] [µg/mL] | MBC/MIC [4] | MBC [4, 16] [µg/mL] | MIC [4, 17] [µg/mL] | MBC/MIC [5] | MBC [5, 18] [µg/mL] | MIC [5, 19] [µg/mL] | MBC/MIC [6] | MBC [6, 20] [µg/mL] | MIC [6, 21] [µg/mL] | MBC/MIC [7] | MBC [7, 22] [µg/mL] | further results |
| --- | --- | --- | --- | --- | --- | --- | --- | --- | --- | --- | --- | --- | --- | --- | --- | --- | --- | --- | --- | --- | --- |
| Cc1cc(S(=O)(=O)NC(=O)CCC2CCCCC2)c(SCc2ccccc2)cc1Cl [Compound 8, N-(2-Benzylthio-4-chloro-5-methylbenzenesulfonyl)-3-cyclohexylpropanamide] |  |  |  |  |  |  |  |  |  |  |  |  |  |  |  |  |  |  |  |  | MBC [1]: > 128 µg/mL; MIC [1]: 128 µg/mL (≈ 275 µM); MBC [2]: > 128 µg/mL; MIC [2]: 128 µg/mL (≈ 275 µM); MBC [3]: > 128 µg/mL; MIC [3]: 64 µg/mL (≈ 137 µM); MBC [4]: > 128 µg/mL; MIC [4]: 128 µg/mL (≈ 275 µM); MBC [5]: > 128 µg/mL; MIC [5]: 16 µg/mL (≈ 34.3 µM); MBC [6]: > 128 µg/mL; MIC [6]: 32 µg/mL (≈ 68.7 µM); MIC ([7]; Staphylococcus epidermidis, PCM2118): 8 µg/mL (≈ 17.2 µM); MBC ([7]; Staphylococcus epidermidis, PCM2118, S. epidermidis PCM 2118): 32 µg/mL (≈ 68.7 µM); MFC [8]: 128 µg/mL (≈ 275 µM); MIC [8]: 64 µg/mL (≈ 137 µM) |
| Cc1cc(S(=O)(=O)NC(=O)CCC2CCCCC2)c(SCc2ccc(C(F)(F)F)cc2)cc1Cl [Compound 9, N-[4-Chloro-5-methyl-2-(4-trifluoromethylbenzylthio)benzenesulfonyl]-3-cyclohexylpropanamide] | >16 | > 128 | 8 (≈ 15 µM) | >1 | > 128 | 128 (≈ 240 µM) | >2 | > 128 | 64 (≈ 120 µM) | >1 | > 128 | 128 (≈ 240 µM) | >32 | > 128 | 4 (≈ 7.49 µM) | >16 | > 128 | 8 (≈ 15 µM) | 2 | 4 to 16 (≈ 7.49 to 30 µM) | MBC ([7]; S. epidermidis PCM 2118): 8 µg/mL (≈ 15 µM); MIC [7, 23]: 4 µg/mL (≈ 7.49 µM); MFC/MIC [8]: 2; MFC [8, 24]: 128 µg/mL (≈ 240 µM); MIC [8, 25]: 64 µg/mL (≈ 120 µM); IC50 [9]: 40 µg/mL and 74 µM; IC50 (HCT-116 (colon cancer)): 78 ± 2 µM; IC50 (HeLa (cervical cancer)): 90 ± 4 µM; IC50 (MCF-7 (breast cancer)): 65 ± 3 µM |
| Cc1cc(S(=O)(=O)NC(=O)CCC2CCCCC2)c(SCc2cccc3ccccc23)cc1Cl [Compound 11, N-[4-Chloro-5-methyl-2-(naphthalen-1-ylmethylthio)benzenesulfonyl]-3-cyclohexylpropanamide] | >16 | > 128 | 8 (≈ 15.5 µM) | >1 | > 128 | 128 (≈ 248 µM) | >1 | > 128 | > 128 | >1 | > 128 | 128 (≈ 248 µM) | >16 | > 128 | 8 (≈ 15.5 µM) | >16 | > 128 | 8 (≈ 15.5 µM) | >32 | > 128 | MIC [7, 23]: 4 µg/mL (≈ 7.75 µM); MFC/MIC [8]: 2; MFC [8, 24]: 128 µg/mL (≈ 248 µM); MIC [8, 25]: 64 µg/mL (≈ 124 µM); IC50 [9]: 42 µg/mL and 81 µM; IC50 (HCT-116 (colon cancer)): 66 ± 1 µM; IC50 (HeLa (cervical cancer)): 42 ± 2 µM; IC50 (MCF-7 (breast cancer)): 82 ± 4 µM |
